Among the data in patent US6706732B1, “Nasal preparation of guanidinoimino quinoline derivatives” (Takeda Chemical Industries, Ltd., priority 1999, dated 2004) are melting point and in vivo absorption values, retold here.

A short description of series [1]: Serum concentration of Compound B after nasal administration to rats. Conditions: rat. It counts as in vivo, male SD rat. As for the experimental part: A male SD rat (8 weeks old) was anesthetized with ether and each of the preparations of Formulation Examples 1 to 6 was given into the left nasal cavity. The dose of Compound B was 0.75 mg/kg (Formulation Example 1), 1.5 mg/kg (Formulation Example 2), 3.0 mg/kg (Formulation Example 3), 6.0 mg/kg (Formulation Example 4), 1.5 mg/kg (Formulation Example 5) and 3.0 mg/kg (Formulation Example 6). Each of the preparations of Formulation Examples 1 to 4 was taken as a portion of about 10 mg, which was filled in a polyethylene tube (INTRAMEDIC PE90, BECKTON DICKINSON) and the polyethylene tube was inserted into the nasal cavity, where it was sprayed with 2 cc of air. Each of the preparations of Formulation Examples 5 and 6 was given as a 20 μl aliquot via a micropipette (*EXCELMYDEGI* 8000, D-5, SANKO JUNYAKU). The preparation of Comparative 1 was given intravenously into a femoral vein of the rat (dose: 1 mg/kg).
After administration of the preparation, blood was taken at a certain interval via a tail vain and examined for the serum concentration of Compound B.

As a reminder, the melting point is the temperature, or range, at which the solid turns liquid.

Regarding `Cc1cc(C)c2c(n1)CC(c1cc(F)ccc1C)CC2=NNC(=N)N.Cl` (centres unmarked), the melting point lay in the range of 201 to 203 °C.

As to `Cc1ccc(F)cc1C1CC(=NNC(=N)N)c2c(C)ccnc2C1.Cl` (centres unmarked) [Compound E], the melting point fell in the range of 192 to 198 °C.

`Cc1ccc(F)cc1C1CC(=NNC(=N)N)c2c(C)ccnc2C1.Cl` (centres unmarked) [Compound C] returned a melting point of 202 to 205 °C.

Take `CS(=O)(=O)O.Cc1ccnc2c1C(=NNC(=N)N)CC(c1cc(F)ccc1Cl)C2` (centres unmarked) [Compound I]: the melting point lay within 206 to 209 °C.

As for `Cc1ccnc2c1C(=NNC(=N)N)CC(c1cc(F)ccc1F)C2.Cl` (centres unmarked), the melting point was 290 °C (dec.).

Consider `Cc1ccnc2c1C(=NNC(=N)N)CC(c1cc(F)ccc1Cl)C2.Cl` (centres unmarked), for which the melting point is 268 °C (dec.).

Take `CS(=O)(=O)O.Cc1ccnc2c1C(=NNC(=N)N)CC(c1ccccc1Cl)C2` (single isomer, unassigned; (-)) [Compound B, (−)-7-(2-chlorophenyl)-5-guanidinoimino-4-methyl-5,6,7,8-tetrahydroquinoline methanesulfonate]: the melting point is 194 to 195 °C. Further, in series [1], the in vivo absorption entry is “rapid in vivo absorption”.

`CS(=O)(=O)O.Cc1ccnc2c1C(=NNC(=N)N)CC(c1cc(F)ccc1Cl)C2` (centres unmarked) [Compound H] showed a melting point of 209 to 212 °C.

Regarding `Cc1ccnc2c1C(=NNC(=N)N)CC(c1ccccc1Cl)C2.Cl` (centres unmarked), the melting point is 204 °C (dec.).

In turn, `CS(=O)(=O)O.Cc1ccc(F)cc1C1CC(=NNC(=N)N)c2c(C)ccnc2C1` (centres unmarked) had a melting point of 202 to 204 °C.
